We go through nine molecules from PubChem BioAssay (NCI).

Experiment in all cases: NCI anticancer screen, dose series, 48 h
For test [1], the system named is RPMI-8226 leukemia.
Test [2] relates to NCI-H460 lung.
In test [3] the test system is KM12 colon.
Test [4] deals with MDA-MB-435.
The subject of test [5] is NCI/ADR-RES ovarian.
Test [6] has as its system SK-MEL-2 melanoma.
Test [7] relates to MDA-N.
Test [8] concerns SK-MEL-28 melanoma.
Test [9] deals with HCT-116 colon.
For test [10], the system named is RXF 393 renal.
The test system of test [11] is SF-539 CNS.
In test [12] the test system is DU-145 prostate.
For test [13], the system named is 786-0 renal.
Test [14] relates to K-562 leukemia.
For test [15], the system named is SK-OV-3 ovarian.
Test [16] deals with T-47D breast.
Test [17] deals with HOP-92 NSCLC.
Test [18] deals with MDA-MB-231 breast.
The subject of test [19] is CAKI-1 renal.
Test [20] concerns OVCAR-4 ovarian.

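Exposure lasted 48 hours, with cells grown in 96-well plates and compounds tested at five concentrations. TGI: concentration producing complete growth inhibition.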

As for `CCOC(=O)C(=[N+]=[N-])C(=O)CN1C(=O)C2CC(C)=C(C)CC2C1O` (centres undefined), the TGI in test [1], in test [2], in [3], in test [4], in test [5] and in [6] was above 100 µM throughout. The TGI in test [7], in test [8], in test [9], in test [10], in test [11] and in test [12] was above 100 µM each time. Moreover, the TGI in test [13] and in test [14] was above 100 µM in each case.
Take `Cc1c(/C=N/NC(=S)Nc2ccccc2)c(=O)n(-c2ccccc2)n1C`: the TGI in test [15], in test [1], in test [2], in [16], in test [3] and in test [17] was above 100 µM each time. Also, the TGI in test [4], in test [5], in test [6], in test [18], in test [8] and in test [9] was above 100 µM each time. Moreover, the TGI in [19], in test [10], in test [11], in test [12], in test [13] and in test [20] was above 100 µM each time. Further, the TGI in test [14] is above 100 µM.
`O=C(NNC(=S)Nc1ccc(Br)cc1)c1cc(-c2ccccc2)nc2ccccc12`: the TGI is 47.5 µM in [15]; 53.7 µM in test [1]; 43.5 µM in test [2]; 60.9 µM in [16]; above 100 µM in test [3]; 43.4 µM in [17]. In addition, the TGI worked out at 43.2 µM in [4]; 51.8 µM in [5]; 41.7 µM in [6]; 65.9 µM in test [18]; 53 µM in test [8]; 30.4 µM in [9]. Besides, the TGI in [19] is 72.6 µM; in test [10] it was 40.4 µM; in [11], 31.3 µM; in test [12], 40.8 µM; in [13], 33.2 µM; in test [20], 46.5 µM. The molecule also showed a TGI in [14] of 89.8 µM.
`COC(=O)c1c2c(cc3c1CC1(C3)Cc3cc4c(c(C(C)=O)c3C1)CCC4)C=CC2` (centres undefined): the TGI in [1], in test [2], in test [16], in test [3], in test [17] and in [4] was above 31.6 µM throughout. Also, the TGI is above 31.6 µM in test [5]; above 31.6 µM in test [6]; above 31.6 µM in test [18]; above 31.6 µM in test [8]; above 31.6 µM in test [9]; above 100 µM in test [19]. Moreover, the TGI in test [11], in test [12], in test [13], in test [20] and in [14] was above 31.6 µM throughout.
As for `COc1cccc(CCNc2c(C#N)c3nc4ccccc4n3c3ccccc23)c1`, the TGI in test [15] was above 100 µM; in [1], above 100 µM; in test [2] it was above 100 µM; in [16] it was above 52.6 µM; in test [3], above 44.5 µM; in [17], above 100 µM. For the same molecule, the TGI was above 100 µM in test [6]; above 100 µM in test [18]; above 100 µM in test [8]; above 61.5 µM in [9]; above 100 µM in [19]; above 100 µM in test [10]. The TGI in test [11] is above 100 µM; in test [12], above 41.1 µM; in [13], above 75.9 µM; in test [20], above 100 µM; in [14], above 100 µM.
For `CC(=O)OC1CC2(C)OC(Cc3ccccc32)O1` (centres undefined), the TGI in test [15], in [1], in test [2], in test [3], in test [17] and in test [6] was above 100 µM throughout. Also, the TGI in test [8], in [9], in [10], in test [11], in test [13] and in test [14] was above 100 µM each time.
`Cc1cc2oc(-c3ccccc3)c(C)c(=O)c2c2c1OC(C)(C)S2`: the TGI in test [15], in [1], in test [2], in test [3], in [17] and in test [6] was above 100 µM throughout. Further, the TGI in test [8], in test [9], in test [10], in [11], in test [13] and in test [20] was above 100 µM in each case. This molecule yielded a TGI in [14] above 100 µM.
As to `CN1C(=O)C(C(N)=O)C2CC1(C)Oc1ccccc12` (centres undefined), the TGI in [15], in test [1], in test [2], in [16], in [3] and in test [17] was above 100 µM in each case. Also, the TGI in test [4], in test [5], in test [6], in test [18], in test [8] and in test [9] was above 100 µM throughout. In addition, the TGI in [19], in test [10], in test [12], in test [13], in [20] and in test [14] was above 100 µM throughout.
Take `Cc1ccc2c(c1)C1(OC(=O)c3ccccc31)c1ccc(F)cc1O2` (centres undefined): the TGI in test [15] is above 100 µM; in test [1], 74.1 µM; in [3], above 100 µM; in [17], above 100 µM; in test [6], above 100 µM; in test [9], above 100 µM. Also, the TGI in test [19], in [13], in test [20] and in test [14] was above 100 µM each time.
